From patent publication US20260207648A1, “NOVEL SMALL MOLECULE KRAS INHIBITOR: DRUGGING UNDRUGGABLE TARGETS FOR CANCER THERAPEUTICS” (PILLAI UNIVERSAL LLC, priority 2022, published 2026)
pIC50: −log10 of the molar value. Read-outs that look alike come from different tables or passages of the source.

Columns and labels:
[1] = test system: Akt, mTOR, ERK; assay: Akt/mTOR/ERK pathway activation; format: cell-based
From the text: In order to better understand the molecular basis of COMPOUND I induced cell cycle arrest and apoptosis, the expression of Akt and mTOR was investigated with various concentrations of COMPOUND I. Akt/mTOR is an important cell survival pathway and activated Akt inhibits apoptosis leading to cell survival. […] Additionally, it was examined whether COMPOUND I effect involved ERK signaling pathway and found the decreased activation of ERK.

[2] = test system: p53, p21, p27, Cyclin B, cdc2, CDK2, CDK4, CDK6, Cyclin D1, Cyclin D3, pRb; assay: Protein levels of cell cycle regulatory proteins; format: cell-based
Method: (§1) Flow cytometry analysis was performed to verify whether COMPOUND I induced apoptosis was related to cell cycle arrest. Cell cycle distribution in KRAS Mutated cell lines was quantified after treatment with different COMPOUND I concentrations. […] Therefore, it was attempted to determine whether COMPOUND I treatment also can influence the expression level of G1/S phase cell cycle regulatory proteins.

[3] = test system: MCF7, HT-29, HEP G2, A549; assay: Cell viability (MTT assay) on human adenocarcinoma cell lines; format: cell-based; details: 48 hours, 250 to 0.97 nmol/L
Method: (§2) Several cell lines including human breast carcinoma (MCF7), colon adenocarcinoma (HT-29), Liver adenocarcinoma (HEP G2), Lung adenocarcinoma (A549) were treated with a range of COMPOUND I for 48 hours and the percentage of cell viability was determined by MTT assay. The average total viable cells were precisely calculated and anti-proliferative effects were determined. […] The drug were also tested on normal monkey Kidney epithelial cells.

[4] = test system: Control cell lines; assay: Cell-cycle regulation and apoptosis in control cell lines; format: cell-based; details: control cell lines compared with KRAS Mutated cell lines
[5] = test system: Akt; assay: Inhibition of Ras downstream pathways: Akt phosphorylation; format: cell-based; details: Homo sapiens, read-out: IC50 phosphorylation and activation of Akt
Method: (§3) The inhibitory effects of compounds COMPOUND I was tested on Ras-associated signal transduction pathways in three different human cell lines: the pancreatic cell-lines PANC-1 (K-Ras G12D mutant), MIA PaCa-2 (K-Ras G12C mutant), and the non-small cell lung cancer cell-line NCI-H1975 (KRas WT). FIG. 8 illustrate the inhibitory effects of COMPOUND I on phosphorylation and activation of MEK, Erk1/2 and Akt in those three cell lines. […] In contrast, the IC50s of compound COMPOUND I on the phosphorylation and activation of MEK and Erk1/2 were approximately 2 μM in PANC-1 and MIA PaCa-2 and 3 μM in NCI-H1975; and, of Akt, were approximately 5 μM in PANC-1 and MIA PaCa-2 and 5 μM in NCIH1975 (FIG. 8).

[6] = test system: MEK; assay: Inhibition of Ras downstream pathways: MEK phosphorylation; format: cell-based; details: Homo sapiens, read-out: IC50 phosphorylation and activation of MEK
Method: as §3

[7] = test system: Erk1/2; assay: Inhibition of Ras downstream pathways: Erk1/2 phosphorylation; format: cell-based; details: Homo sapiens, read-out: IC50 phosphorylation and activation of Erk1/2
Method: as §3

[8] = test system: apoptosis; assay: DNA fragmentation assay / apoptosis quantitation; format: cell-based
Method: (§4) To confirm that COMPOUND I induced cell apoptosis, DNA fragmentation assay, was performed. […] Furthermore, the expression levels of proteins related to apoptosis and cell cycle progression by western blotting were examined. Cells were treated with COMPOUND I at different concentrations and total proteins were isolated. Beta-Actin was used as an internal control. […] The effect of drugs on the cleavage of procaspase 9 and procaspase 3 were examined. […] Caspase-3 is a key regulator of mitochondrial dependent and independent apoptotic pathways and activation of caspase-3 leads to cleavage of several substrates including PARP.

[9] = test system: KRAS Mutated cell lines; assay: Flow cytometry cell cycle distribution; format: cell-based
Method: as §1

[10] = test system: MEK, Erk1/2 and Akt; assay: Inhibition of Ras downstream pathways (summary over readouts and cell lines); format: cell-based; details: Homo sapiens; PANC-1, MIA PaCa-2 and NCI-H1975; read-out: IC50 phosphorylation and activation of MEK, Erk1/2 and Akt
Method: as §3

[11] = test system: Ras-GTP complex; assay: Ras pull-down assay; format: cell-based, human; details: PANC-1, MIA PaCa-2 and NCIH1975; read-out: IC50 Ras-GTP complex formation
Method: As a follow up to the downstream assays, the ability of COMPOUND I was also measured to inhibit Ras-GTP complex formation in the three tested cell-lines (PANC-1, MIA PaCa-2 and NCIH1975) using a Ras pull-down assay. […] These values correlate well with the IC50 values obtained for the inhibition of MEK, Erk1/2 and Akt phosphorylation presented in FIGS. 2 and 3.

[12] = test system: normal monkey Kidney epithelial cells; assay: MTT cytotoxicity on normal cells; format: cell-based; details: normal monkey Kidney epithelial cells versus cancer cell lines
Method: as §2

[13] = test system: Bcl-2, Bax, caspase-9, caspase-3, PARP; assay: Western blotting of apoptosis-related proteins; format: cell-based; details: western blot
Method: as §4

[14] = test system: PANC-1, MIA PaCa-2, NCIH1975, A549 (K-Ras G12S mutant), NCI-H1299 (N-Ras Q61K mutant); assay: Cellular proliferation of Ras wild type/mutant cell lines; format: cell-based; details: Homo sapiens; range over all tested cell lines
Method: The inhibition of compounds COMPOUND I on the cellular proliferation of […] cell lines were measured: The three cell lines in the signaling studies (PANC-1, MIA PaCa-2, NCIH1975), and the non-small cell lung cancer lines A549 (K-Ras G12S mutant) and NCI-H1299 (N-Ras Q61K mutant). FIG. 7 and IC50 values measured in these studies. […] Consistent with the notion that these compounds are pan-Ras superfamily inhibitors, it is reasonable to speculate that they can inhibit pathways downstream of several members of the Rassuperfamily.

- pIC50 ([5]; NCI-H1975, NCIH1975 (KRas WT)): ~5.30
- pIC50 ([5]; MIA PaCa-2 (K-Ras G12C mutant)): ~5.30
- pIC50 ([5]; PANC-1 (K-Ras G12D mutant)): ~5.30
- pIC50 ([6]; MIA PaCa-2 (K-Ras G12C mutant)): ~5.70
- pIC50 ([6]; NCI-H1975 (KRas WT)): ~5.52
- pIC50 ([6]; PANC-1 (K-Ras G12D mutant)): ~5.70
- pIC50 ([7]; MIA PaCa-2 (K-Ras G12C mutant)): ~5.70
- pIC50 ([7]; NCI-H1975 (KRas WT)): ~5.52
- pIC50 ([7]; PANC-1 (K-Ras G12D mutant)): ~5.70
- pIC50 [10]: 5.52 to 6.00
- pIC50 [11]: 5.52 to 5.70
- pIC50 [14]: 5.92 to 6.35
Structure (SMILES): COc1cc(C(C)=O)ccc1C(=O)COP(=O)(O)OP(=O)(O)OP(=O)(O)OCC1OC(n2cnc3c(=O)[nH]c(Nc4ccc(O)cc4)nc32)C(O)C1O (centres unmarked) [COMPOUND I]
- total Akt and mTOR levels [1]: remained constant
- phosphorylation of Akt and mTOR ([1]; Serine 473 and Serine 2448, concentration-dependent): suppressed
- phosphorylation of ERK ([1]; Threonine 202 and Tyrosine 204): suppressed
- expression levels of p21, p27 and p53 ([2]; KRAS Mutated cell lines): Greater expression levels
- expression levels of CDK4, CDK6, Cyclin D1, Cyclin D3, pRb ([2]; dose-dependent): decreased significantly
- expression levels of Cyclin B, cdc2, CDK2 ([2]; dose-dependent): decreased significantly
- proliferation / cell viability [3]: inhibited the proliferation of all the cell lines in a dose-dependent manner
- changes in cell-cycle regulation and apoptosis [4]: better protected
- DNA fragmentation (ladder pattern in agarose gels) ([8]; 48 hours, all concentrations tested): lead to DNA fragmentation
- apoptosis (quantitative analysis) ([8]; treated cells): significant increase of apoptosis
- cells showing G1/S phase arrest [9]: 23.98%
- number of cells in the G2/M phase [9]: 76.89%
- sensitivity to induced cytotoxicity [12]: less sensitive
- cleavage of PARP into 116 kDa and 84 kDa fragment [13]: induced the cleavage of PARP
- cleavages of procaspase 9 and procaspase 3 [13]: induced in a dose-dependent manner
- expression of Bcl-2 ([13]; dose dependent): down regulated
- expression of proapoptotic proteins Bax, caspase-9 and caspase-3 ([13]; dose dependent): induced expression
